Test results taken from the supplement of paper PMC13380429.

Assays:
Settings in all cases: 72 h
Calu-3 [1] = experiment: relative viability EC50 (midpoint between 100% and the lowest measured viability); higher = less toxic
Caco-2 [2] = experiment: as above
U2OS [3] = experiment: as above
HepG2 [4] = experiment: as above
Vero E6 [5] = experiment: as above
Calu-3 [6] = experiment: drug sensitivity score (DSS) for viability; higher = more toxic; extreme values may be limits of the assay
Caco-2 [7] = experiment: as above
U2OS [8] = experiment: as above
HepG2 [9] = experiment: as above
Vero E6 [10] = experiment: as above
Calu-3 [11] = experiment: cell viability relative to DMSO; higher = less toxic
Caco-2 [12] = experiment: as above
U2OS [13] = experiment: as above
HepG2 [14] = experiment: as above
Vero E6 [15] = experiment: as above

Structure (SMILES)	relative viability EC50 (Calu-3 [1]) [µM]	relative viability EC50 (Caco-2 [2]) [µM]	relative viability EC50 (U2OS [3]) [µM]	relative viability EC50 (HepG2 [4]) [µM]	relative viability EC50 (Vero E6 [5]) [µM]	drug sensitivity score (Calu-3 [6])	drug sensitivity score (Caco-2 [7])	drug sensitivity score (U2OS [8])	drug sensitivity score (HepG2 [9])	drug sensitivity score (Vero E6 [10])	cell viability (Calu-3 [11]; 1 nM) [%]	cell viability (Calu-3 [11]; 10 nM) [%]	cell viability (Calu-3 [11]; 100 nM) [%]	cell viability (Calu-3 [11]; 1000 nM) [%]	cell viability (Calu-3 [11]; 10000 nM) [%]	cell viability (Caco-2 [12]; 1 nM) [%]	cell viability (Caco-2 [12]; 10 nM) [%]	cell viability (Caco-2 [12]; 100 nM) [%]	cell viability (Caco-2 [12]; 1000 nM) [%]	cell viability (Caco-2 [12]; 10000 nM) [%]	cell viability (U2OS [13]; 1 nM) [%]	cell viability (U2OS [13]; 10 nM) [%]	cell viability (U2OS [13]; 100 nM) [%]	cell viability (U2OS [13]; 1000 nM) [%]	cell viability (U2OS [13]; 10000 nM) [%]	cell viability (HepG2 [14]; 1 nM) [%]	cell viability (HepG2 [14]; 10 nM) [%]	cell viability (HepG2 [14]; 100 nM) [%]	cell viability (HepG2 [14]; 1000 nM) [%]	cell viability (HepG2 [14]; 10000 nM) [%]	cell viability (Vero E6 [15]; 1 nM) [%]	cell viability (Vero E6 [15]; 10 nM) [%]	cell viability (Vero E6 [15]; 100 nM) [%]	cell viability (Vero E6 [15]; 1000 nM) [%]	cell viability (Vero E6 [15]; 10000 nM) [%]
CC1(C)CC(=O)C(C2C3=C(CC(C)(C)CC3=O)Oc3ccccc32)C(=O)C1 (stereo not given)	> 10	> 10	> 10	> 10	> 10	0	0	0	0	0	93	98.1	98	101	109	99.2	93.7	96.5	95.8	99.2	96.7	101	95	98.2	101	92.1	103	97.5	96.8	102	102	98	103	102	100
CCC(=N\O)/C(C)=C/c1ccc(F)cc1	> 10	> 10	> 10	> 10	> 10	0	0	0	0	0	104	98.5	95.9	107	95	93.9	91.4	89.5	96.4	97.5	98.4	100	98.4	103	95	91.9	107	102	102	91	99.1	99.2	102	98.5	98.8
CCN(CC)CCCC(C)Nc1nc(C)cc(Nc2ccc3nc(C)cc(N)c3c2)n1 (stereo not given)	> 10	> 10	> 10	> 10	> 10	0	0	0	1.2	0	104	92	95.4	92.5	110	102	97.2	99.5	95	105	106	97.6	100	97.8	102	96	99.9	100	95.6	79.9	97.7	102	104	97.9	97.6
CN(C)Cc1ccc(-c2nc3cccc4c3n2CCNC4=O)cc1	> 10	> 10	> 10	> 10	> 10	0	0	0	1.4	0	85.7	90.3	80.8	73.7	99.7	92.8	117	104	100	98.2	93.6	98	94.6	100	99.8	109	93.3	97.5	95.9	77.1	104	95.9	103	96	101
CNc1nc(C)nc(N[C@H]2CCC[C@@H](C(=O)NCc3ccc(C#N)cc3C(F)(F)F)C2)n1	> 10	> 10	> 10	> 10	> 10	0	0	0	0	0	93.9	98.1	97	93.2	89.4	87.8	102	91.8	98.6	95.1	97	100	97.9	107	99.9	99.4	98.7	103	94.7	111	99.3	96.8	100	96.8	108
COc1cc(Nc2nc3ccccc3nc2NS(=O)(=O)c2ccc(NC(=O)c3ccc(C)c(OC)c3)cc2)cc(OC)c1	> 10	> 10	> 10	> 10	> 10	0	0	0	0	0	109	85.9	109	94.4	110	95.4	100	96	97.7	103	97	97.7	97.1	95.9	103	101	83.8	92.1	99.1	89.7	99.9	95.9	102	95.7	99.9
COc1cccc(CN(C(=O)CC(C)(C)C)[C@H]2C[C@@H](C(=O)N3CCNCC3)N(Cc3ccc4c(c3)OCO4)C2)c1	> 10	> 10	> 10	> 10	> 10	0	0	0	0	0	93.6	98	95.3	92.4	102	98.4	106	98.3	102	87.5	95.2	98	97.3	97	90.7	94.8	96.2	87.2	104	91.4	101	102	107	98.2	95.6
COc1ncc(-c2ccc3nccc(-c4ccnnc4)c3c2)cc1NS(=O)(=O)c1ccc(F)cc1F	0.0044	0.0081	0.0484	0.0297	0.0351	32.5	29.8	26.2	22.2	24.1	79.4	47.4	22.2	19.5	17.4	84.8	60.2	19	25.3	28.8	91	80.3	34.2	13.9	0.9	98.8	77.2	46.3	25	29.2	90.2	80.1	38.9	22.6	15.1
Cc1cc(SCc2sc(-c3ccc(C(F)(F)F)cc3)nc2C)ccc1OCC(=O)O	> 10	> 10	> 10	> 10	> 10	0	0	0	0	0	108	92.8	92.6	99.5	102	99.9	103	104	103	96.2	98.4	102	99.9	107	99	99	101	106	104	96.1	106	104	103	97.6	97.3
Clc1cccc2c1CN(C1=NCCN1)C2	> 10	> 10	> 10	> 10	> 10	0	0	0	0	0	97.1	90.1	109	101	98.3	100	100	95.6	98.8	97.3	101	101	97.3	102	92.1	96.7	101	91.8	92.5	97.3	98.9	98.7	104	98.5	99.2
NC(=O)N/N=C/c1ccc(Oc2ccc(F)cc2)cc1	> 10	> 10	> 10	> 10	> 10	0	0	0	0.1	0.1	99.9	101	80.1	92.8	109	99.6	98.4	104	96.8	97.9	95.9	94.5	98.9	97.6	99.4	95.8	106	92.4	89.7	96	105	101	104	100	86.6
O=C(NCC1CCOCC1)c1cnc(Nc2ccc(Cl)cc2Cl)nc1C(F)(F)F	> 10	> 10	> 10	> 10	> 10	0	0	0	0	0	104	107	100	99.4	105	104	99.3	113	104	101	96.5	102	96	95.5	93.2	105	102	102	99.2	112	99.8	91.9	94.8	93.1	98.9
O=C(N[C@H]1CN2CCC1CC2)c1ccc2c(c1)OCCO2	> 10	> 10	> 10	> 10	> 10	0	0	0	0	0	93.6	98.3	102	102	99.3	93.6	95.2	87.5	101	99.1	98.8	94.8	97.8	95.3	97.2	101	93	108	97.7	94.6	100	89.3	97.2	91.3	107
O=C(Nc1ccccc1)N1CCN(c2nc(-c3ccccc3)ns2)CC1	> 10	> 10	> 10	> 10	> 10	0	0.4	0	0.6	0.3	116	102	106	96.8	102	100	97.8	101	95.4	86.7	104	99.5	97.8	99.6	98.9	100	118	101	106	76.9	93.3	96.3	94.1	93	83
